What was measured:
[1] = system: chronic constriction injury (CCI) model of neuropathic pain; assay: 2-month chronic constriction injury (CCI) model: mechanical threshold and thermal paw withdrawal latency; format: in vivo; settings: compared with the fluocinolone implants
Experimental: A 2-month chronic constriction injury (CCI) model of neuropathic pain was used to evaluate different formulations of a corticosteroid, fluocinolone, encapsulated in bioerodable polymers compared to fluocinolone given subcutaneously (SC). Different formulations as provided in Table B below were evaluated for reducing pain-associated behaviors: Thermal paw withdrawal latency was evaluated at baseline 7, 14, 21, 28, 35, 42, 49, and 56 days post-operatively, while mechanical threshold was evaluated at 8, 15, 22, 29, 36, 43, 50, and 57 days post-operatively.
There were seven groups of animals tested. […]
Mechanical allodynia was measured using von Frey monofilaments (Stoelting, Wood Dale, Ill.) with varying stiffness (2.0-15.0 g) on Days 1, 8, 15, 22, 29, 36, 43, 50 and 57 as described previously (see FIGS. 5-6). […] The 50% paw withdrawal threshold response was determined by a sequential increasing and/or decreasing of the stimulus strength (the “up-down method” of Dixon). […] The 50% paw withdrawal threshold was calculated using the formula: 10 (Xf+kd)/10,000, where Xf is the final von Frey filament used (log units), k is a value that analyzes the response pattern (taken from the table published by Chaplan et al.), and d is the mean difference between stimuli (log units). The mean and standard error of the mean (SEM) were determined for each treatment group.

[2] = system: inflammatory response; assay: Implant-site observation: resorption of foreign material and encapsulation (FIGS. 9 and 10); format: in vivo; settings: picture
Text: FIG. 10 is a picture of fluocinolone implants 20 wt % 85/15 PLGA+10% mPEG and 1% wt fluocinolone 100 DL 7E+5% PEG/7% 50/50 PLGA 7A. The foreign and inflammatory material was not resorbed due to lack of inflammatory response mediated by fluocinolone implants.

CC1=C(CC(=O)O)c2cc(F)ccc2/C1=C\c1ccc([S+](C)[O-])cc1 (stereo not drawn) [sulindac]
pain control response [1]: very similar pain control response
encapsulation of implant [2]: did not prevent encapsulation
resorption of foreign and inflammatory material (sutures) [2]: resorbed

From patent US9763966B2, “Fluocinolone formulations in a biodegradable polymer carrier” (Warsaw Orthopedic, Inc., priority 2008, dated 2017)
